These results are taken from patent US8481495B2 (TetraLogic Pharmaceuticals Corporation, priority 2009, dated 2013).

A value given as a limit tells only on which side of the number the result lay.

For one test, the target named is T1, XIAP BIR-3 (Homo sapiens, UniProt P98170).
T1 construct: 40 nM of the respective IAP BIR3
Briefly: Fluorescence polarization binding to XIAP BIR-3 with labeled peptide AbuRPF-K(5-Fam)-NH2. As to conditions: XIAP BIR-3, 40 nM BIR3, 5 nM labeled peptide, 15 min RT, pH 7.5; read-out: XIAP, nM (binding affinity KD, as range). The procedure: (§1) The binding affinities of the compounds are reported as a KD value (μM). Briefly, various concentrations of test peptides were mixed with 5 nM of the fluorescently labeled peptide (i.e., a mutated N-terminal Smac peptide-AbuRPF-K(5-Fam)-NH2) and 40 nM of the respective IAP BIR3 for 15 min at RT in […] of 0.1M Potassium Phosphate buffer, pH 7.5 containing […] bovine g-globulin. Following incubation, the polarization values (mP) were measured on a Victor2V™ (available from PerkinElmer® Life Sciences) using a 485 nm excitation filter and a 520 nm emission filter. The reported binding affinities (KD values) are supplied as ranges (A=<0.1 μM, B=0.1 μM to 1 μM, C=>1 μM to 10 μM, D=>10 μM).

A further test concerns the target T2, cIAP-1 BIR-3 (Homo sapiens, UniProt Q13490).
T2 construct: 40 nM of the respective IAP BIR3
Briefly: Fluorescence polarization binding to cIAP-1 BIR-3 with labeled peptide AbuRPF-K(5-Fam)-NH2. As to conditions: cIAP-1 BIR-3, 40 nM BIR3, 5 nM labeled peptide, 15 min RT, pH 7.5; read-out: cIAP1, nM (binding affinity KD, as range). On the procedure:
as §1
Background: Polarisation of emitted light reports the rotation of a fluorescent probe.

In a further test the test system is SK-OV-3 cells. Briefly: MTT cell growth inhibition assay in ovarian cancer cell line SK-OV-3. Type of test: cell-based. As to conditions: Homo sapiens, 72 hrs incubation, read-out: SKOV3, nM (CC50, concentration giving 50% cell survival, as range). On the procedure:
Compounds of the invention also were tested for their ability to inhibit the growth of an ovarian cancer cell line, SK-OV-3. A known assay previously used for measuring cell growth (as described in Hansen, M. B., Nielsen, S. E., and Berg, K. (1989) J. Immunol. Methods 119, 203-210 and incorporated herein by reference in its entirety) was used. Briefly, SK-OV-3 cells are seeded in 96-well plates in McCoy's medium containing 10% fetal bovine serum albumin (5,000 per well) and incubated overnight at 37° C. The next day, test compounds are added at various concentrations (0.003-10 μM) and the plates are incubated at 37° C. for an additional 72 hrs. This incubation time was considered to be optimal for measuring inhibitory effects of the different compounds tested. 50 microliters of 5 mg/mL MTT reagent is added to each well and the plates are incubated at 37° C. for another three (3) hours. At the end of the three (3) hour incubation period, 50 microliters of DMSO is added to each well to dissolve cells and the optical density (OD) of the wells is measured with a microplate reader (Victor^2 1420™, Wallac, Finland) at 535 nm. Cell survival (CS) was calculated using the following equation: CS=(OD treated well/mean OD control wells)×100%.
The CC50 (reported in the following tables), is defined as the drug concentration that results in 50% cell survival (CS), and is derived by calculating the point where the dose-response curve crosses the 50% CS point using GraphPad Prism® graphing software. The reported CC50 values are supplied as ranges (A=<0.1 μM, B=0.1 μM to 1 μM, C=>1 μM to 10 μM, D=>10 μM).

T2 sequence (Q13490 253-363 limits assumed): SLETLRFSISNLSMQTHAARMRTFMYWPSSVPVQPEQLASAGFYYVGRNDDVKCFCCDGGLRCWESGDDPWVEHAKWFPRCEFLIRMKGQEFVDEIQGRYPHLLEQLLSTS
T1 sequence (P98170 241-356 limits assumed): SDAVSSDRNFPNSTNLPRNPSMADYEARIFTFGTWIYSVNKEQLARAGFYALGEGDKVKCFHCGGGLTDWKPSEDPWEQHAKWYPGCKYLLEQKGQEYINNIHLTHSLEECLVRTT

As to `CN[C@@H](C)C(=O)N[C@H](C(=O)N1CC[C@@H]2[C@H]1[C@@H](C(=O)N[C@@H]1CCCc3ccccc31)CN2S(C)(=O)=O)C1CCCCC1` [Example 1, 4-[2-Cyclohexyl-2-(2-methylamino-propionylamino)-acetyl]-1-methanesulfonyl-octahydro-pyrrolo[3,2-b]pyrrole-3-carboxylic acid (1,2,3,4-tetrahydro-naphthalen-1-yl)-amide], the Kd at XIAP BIR-3 and on cIAP-1 BIR-3 was less than 100 nM each time. Moreover, the CC50 in the test with SK-OV-3 cells is less than 100 nM.
`CN[C@@H](C)C(=O)N[C@H](C(=O)N1CC[C@@H]2[C@H]1[C@@H](C(=O)NCc1ccccc1)CN2S(C)(=O)=O)C1CCCCC1` [Example 2, 4-[2-Cyclohexyl-2-(2-methylamino-propionylamino)-acetyl]-1-methanesulfonyl-octahydro-pyrrolo[3,2-b]pyrrole-3-carboxylic acid benzylamide]: the Kd on XIAP BIR-3 and on cIAP-1 BIR-3 was less than 100 nM each time. Besides, the CC50 in the test on SK-OV-3 cells was less than 100 nM.
For the compound `CN[C@@H](C)C(=O)N[C@H](C(=O)N1CC[C@@H]2[C@H]1[C@@H](C(=O)NCc1ccc(F)cc1)CN2S(C)(=O)=O)C1CCCCC1` [Example 3, 4-[2-Cyclohexyl-2-(2-methylamino-propionylamino)-acetyl]-1-methanesulfonyl-octahydro-pyrrolo[3,2-b]pyrrole-3-carboxylic acid 4-fluoro-benzylamide], the Kd at XIAP BIR-3 and on cIAP-1 BIR-3 was less than 100 nM throughout. Also, the CC50 with SK-OV-3 cells was less than 100 nM.
As for `CN[C@@H](C)C(=O)N[C@H](C(=O)N1CC[C@@H]2[C@H]1[C@@H](C(=O)N[C@H]1CCCc3ccccc31)CN2S(C)(=O)=O)C1CCCCC1` [Example 4, 4-[2-Cyclohexyl-2-(2-methylamino-propionylamino)-acetyl]-1-methanesulfonyl-octahydro-pyrrolo[3,2-b]pyrrole-3-carboxylic acid (1,2,3,4-tetrahydro-naphthalen-1-yl)-amide], the equilibrium dissociation constant (Kd) on XIAP BIR-3 and at cIAP-1 BIR-3 was less than 100 nM throughout. Moreover, the CC50 in the test on SK-OV-3 cells was in the range of 100 to 1000 nM.
For the compound `CN[C@@H](C)C(=O)N[C@H](C(=O)N1CC[C@@H]2[C@H]1[C@@H](C(=O)NC1CCCCC1)CN2S(C)(=O)=O)C1CCCCC1` [Example 5, 4-[2-Cyclohexyl-2-(2-methylamino-propionylamino)-acetyl]-1-methanesulfonyl-octahydro-pyrrolo[3,2-b]pyrrole-3-carboxylic acid cyclohexylamide], the results for the Kd on XIAP BIR-3 and on cIAP-1 BIR-3 were 1000 to 10000 nM and less than 100 nM, respectively. Moreover, in the test on SK-OV-3 cells, the CC50 is 1000 to 10000 nM.
With `CN[C@@H](C)C(=O)N[C@H](C(=O)N1CC[C@@H]2[C@H]1[C@@H](C(=O)NC(c1ccccc1)c1ccccc1)CN2S(C)(=O)=O)C1CCCCC1` [Example 6, 4-[2-Cyclohexyl-2-(2-methylamino-propionylamino)-acetyl]-1-methanesulfonyl-octahydro-pyrrolo[3,2-b]pyrrole-3-carboxylic acid benzhydryl-amide], the Kd on XIAP BIR-3 and on cIAP-1 BIR-3 was less than 100 nM in each case. For the same compound, the CC50 in the test with SK-OV-3 cells fell in the range of 100 to 1000 nM.
`CN[C@@H](C)C(=O)N[C@H](C(=O)N1CC[C@@H]2[C@H]1[C@@H](C(=O)N[C@H](C)c1ccccc1)CN2S(C)(=O)=O)C1CCCCC1` [Example 7, 4-[2-Cyclohexyl-2-(2-methylamino-propionylamino)-acetyl]-1-methanesulfonyl-octahydro-pyrrolo[3,2-b]pyrrole-3-carboxylic acid (1-phenyl-ethyl)-amide]: the Kd (usually the concentration at which binding is half-saturated) is 100 to 1000 nM at XIAP BIR-3 and less than 100 nM at cIAP-1 BIR-3. Moreover, the CC50 with SK-OV-3 cells is 100 to 1000 nM.
`CN[C@@H](C)C(=O)N[C@H](C(=O)N1CC[C@@H]2[C@H]1[C@@H](C(=O)Nc1ccccc1)CN2S(C)(=O)=O)C1CCCCC1` [Example 8, 4-[2-Cyclohexyl-2-(2-methylamino-propionylamino)-acetyl]-1-methanesulfonyl-octahydro-pyrrolo[3,2-b]pyrrole-3-carboxylic acid phenylamide]: the values for the Kd on XIAP BIR-3 and at cIAP-1 BIR-3 were 100 to 1000 nM and less than 100 nM, respectively. The CC50 with SK-OV-3 cells was less than 100 nM.
`CN[C@@H](C)C(=O)N[C@H](C(=O)N1CC[C@@H]2[C@H]1[C@@H](C(=O)N(C)Cc1ccccc1)CN2S(C)(=O)=O)C1CCCCC1` [Example 9, 4-[2-Cyclohexyl-2-(2-methylamino-propionylamino)-acetyl]-1-methanesulfonyl-octahydro-pyrrolo[3,2-b]pyrrole-3-carboxylic acid benzyl-methyl-amide]: the Kd on XIAP BIR-3 and at cIAP-1 BIR-3 was less than 100 nM each time. For the same compound, the CC50 with SK-OV-3 cells fell in the range of 100 to 1000 nM.
With `CN[C@@H](C)C(=O)N[C@H](C(=O)N1CC[C@@H]2[C@H]1[C@@H](C(=O)N[C@@H](Cc1ccccc1)C(=O)OC)CN2S(C)(=O)=O)C1CCCCC1` [Example 10, 2-({4-[2-Cyclohexyl-2-(2-methylamino-propionylamino)-acetyl]-1-methanesulfonyl-octahydro-pyrrolo[3,2-b]pyrrole-3-carbonyl}-amino)-3-phenyl-propionic acid methyl ester], the Kd at XIAP BIR-3 and on cIAP-1 BIR-3 was 100 to 1000 nM each time. Besides, in the test with SK-OV-3 cells, the CC50 lay within 1000 to 10000 nM.
For the compound `CN[C@@H](C)C(=O)N[C@H](C(=O)N1CC[C@@H]2[C@H]1[C@@H](C(=O)N[C@@H](C)c1ccccc1)CN2S(C)(=O)=O)C1CCCCC1` [Example 11, 4-[2-Cyclohexyl-2-(2-methylamino-propionylamino)-acetyl]-1-methanesulfonyl-octahydro-pyrrolo[3,2-b]pyrrole-3-carboxylic acid (1-phenyl-ethyl)-amide], the Kd at XIAP BIR-3 and on cIAP-1 BIR-3 was less than 100 nM throughout. In the test with SK-OV-3 cells, the CC50 lay within 100 to 1000 nM.
Consider `CN[C@@H](C)C(=O)N[C@H](C(=O)N1CC[C@@H]2[C@H]1[C@@H](C(=O)N[C@H]1CCc3ccccc31)CN2S(C)(=O)=O)C1CCCCC1` [Example 12, 4-[2-Cyclohexyl-2-(2-methylamino-propionylamino)-acetyl]-1-methanesulfonyl-octahydro-pyrrolo[3,2-b]pyrrole-3-carboxylic acid indan-1-ylamide], for which the Kd on XIAP BIR-3 is 100 to 1000 nM; at cIAP-1 BIR-3, less than 100 nM. Further, in the test with SK-OV-3 cells, the CC50 fell in the range of 100 to 1000 nM.
Turning to `CN[C@@H](C)C(=O)N[C@H](C(=O)N1CC[C@@H]2[C@H]1[C@@H](C(=O)N1Cc3ccccc3C1)CN2S(C)(=O)=O)C1CCCCC1` [Example 13, N-{1-Cyclohexyl-2-[6-(1,3-dihydro-isoindole-2-carbonyl)-4-methanesulfonyl-hexahydro-pyrrolo[3,2-b]pyrrol-1-yl]-2-oxo-ethyl}-2-methylamino-propionamide], the Kd on XIAP BIR-3 and at cIAP-1 BIR-3 was less than 100 nM throughout. Also, the CC50 with SK-OV-3 cells is less than 100 nM.
Take `CN[C@@H](C)C(=O)N[C@H](C(=O)N1CC[C@@H]2[C@H]1[C@@H](C(=O)N[C@@H]1CCc3ccccc31)CN2S(C)(=O)=O)C1CCCCC1` [Example 14, 4-[2-Cyclohexyl-2-(2-methylamino-propionylamino)-acetyl]-1-methanesulfonyl-octahydro-pyrrolo[3,2-b]pyrrole-3-carboxylic acid indan-1-ylamide]: the Kd was 100 to 1000 nM at XIAP BIR-3 and less than 100 nM at cIAP-1 BIR-3. Besides, the CC50 with SK-OV-3 cells was less than 100 nM.
Consider `CN[C@@H](C)C(=O)N[C@H](C(=O)N1CC[C@@H]2[C@H]1[C@@H](C(=O)N1CCc3ccccc31)CN2S(C)(=O)=O)C1CCCCC1` [Example 15, N-{1-Cyclohexyl-2-[6-(2,3-dihydro-indole-1-carbonyl)-4-methanesulfonyl-hexahydro-pyrrolo[3,2-b]pyrrol-1-yl]-2-oxo-ethyl}-2-methylamino-propionamide], for which the Kd at XIAP BIR-3 and at cIAP-1 BIR-3 was 100 to 1000 nM in each case. Besides, in the test with SK-OV-3 cells, the CC50 was less than 100 nM.
